The text below walks through data of patent US11773087B2, “GLP-1R receptor agonist compound and use thereof” (SUZHOU VINCENTAGE PHARMA CO., LTD, priority 2020, dated 2023).

Data set [1] can be described thus: Pharmacokinetic evaluation of cynomolgus monkey (IV and oral). Particulars: for F: 50 mg/kg PO vs 1 mg/kg IV, oral bioavailability; for Cmax / Tmax / clearance / half-life / AUC(0-t) / concentration at 24 h: male, plasma; for AUC(0-t): read-out: AUC0-24 h; for concentration at 24 h: read-out: C24 h. The format is in vivo, cynomolgus monkeys. The procedure:
Test Embodiment 3: Pharmacokinetic Evaluation of Cynomolgus Monkey
The drug concentrations in the plasma of cynomolgus monkeys were tested at different times after intravenous injection and oral administration of the compounds using cynomolgus monkeys as test animals. The pharmacokinetic behavior of the compounds of the present disclosure in cynomolgus monkeys was studied and their pharmacokinetic characteristics were evaluated. In each group of embodiments, 2 cynomolgus monkeys with similar body weight were selected, administered at a dose of 1 mg/kg by intravenous injection and at a dose of 50 mg/kg by oral administration for a single administration.
Age of cynomolgus monkeys at the time of administration: about 2-4 years old; body weight: 3.0-4.6 kg at the beginning of administration; 4 monkeys; sex: male.
Intravenous group: The final concentration of 0.5 mg/mL was prepared for intravenous administration, and the preparation solvent was 5% DMSO+45% PEG400+50% water, and the preparation was in a clarified solution.
Oral group: The final concentration of 10 mg/mL was prepared for oral administration, and the preparation solvent was 5% DMSO+45% PEG400+50% water, and the preparation was in homogeneous suspension.
(§1) Blood was collected from animals at 5 min, 15 min, 30 min, 1 h, 2 h, 4 h, 7 h, 12 h, 24 h time points after administration. The LC-MS/MS analysis method was used to detect the content of the compound in plasma, and the lower limit of quantification of the method was 20 ng/mL. Concentration data in plasma was counted using the metabolic kinetic data analysis software WinNonlin 7.0, and the pharmacokinetic parameters were calculated using the non-compartmental analysis (NCA), as shown in Table 3 below.
Determination of the content of test compounds in the plasma of cynomolgus monkeys after drug administration: After blood samples were collected, placed in a marked ice-bath centrifuge tube, and rapidly centrifuged to separate the plasma. Centrifugation conditions: 4000 rpm, 10 minutes, 4° C., and plasma was stored at −40° C. or less for testing.

Data set [2] is described as follows: Pharmacokinetic evaluation in rats (gavage). The format is in vivo. The following applies: rat, 10 mg/kg single oral gavage, plasma. The procedure:
Test Embodiment 2: Pharmacokinetic Evaluation in Rats
as §1, with “The drug concentrations in the plasma of rats were tested at different times after the administration of the compounds by gavage using rats as test animals. The pharmacokinetic behavior of the compounds of the present disclosure in rats was studied and their pharmacokinetic characteristics were evaluated. In each group of embodiments, 3 rats with similar body weight were selected and administered orally at a dose of 10 mg/kg for a single administration. Blood” for “Blood”, “at” for “at 5 min,”, “h, 6 h, 8” for “h, 7”, “Table 2” for “Table 3”
Drug configuration: A certain amount of drug was taken, added with 2% Klucel LF+0.1% Tween 80 aqueous solution to prepare a clear solution or a uniform suspension.
Administration: Rats were administered by gavage after overnight fasting at a dose of 10 mg/kg.
Operation: Rats were administered by gavage, and blood was collected from the tail vein before administration and 15 min, 30 min, 1 h, 2 h, 4 h, 6 h, 8 h, 12 h, 24 h after administration, placed in heparinized sample tubes, centrifuged at 4° C., 3500 rpm for 10 min to separate plasma, stored at −20° C., and fed 2 hours after administration.
Determination of the content of test compounds in rat plasma after drug administration by gavage: 50 μL of plasma samples were thawed at room temperature, added with 130 μL of internal standard working solution (1000 ng/mL, acetonitrile, tolbutamide), vortexed for about 1 min and then centrifuged for 10 min at 4° C. and 13000 rpm. 50 μL of supernatant was mixed with 100 μL of 50% acetonitrile in water, and then the sample was injected for LC/MS/MS analysis.

For data set [3] the following is noted: obese patients, cited from earlier work.
The target in a further data set is T1, human GLP-1R receptor (Homo sapiens, UniProt P43220).
T1 construct: expressed in transfected cells; host or cells: 'GLP-1R cells' (frozen vial)
Kind of data set: GLP-1R cAMP assay (HTRF, HEK293 cells expressing GLP-1R). The format is cell-based. The following applies: agonistic activity, GLP-1R HEK293 cells. On the procedure: Test Embodiment 1: Activity Test of GLP-1R cAMP Assay
This experiment aims to verify the agonistic activity of the compound of the present disclosure on human GLP-1R receptor.
Compounds were diluted 4-fold starting at 100 μM from DMSO using Bravo for a total of 10 points.
The reference compound polypeptide GLP-1 (7-37) was diluted 4-fold starting from 500 nM in DMSO using Bravo for a total of 10 points.
b) Preparation of Cell Suspension: • 1) 1 vial of GLP-1R cells was quickly thawed in a 37° C. water bath. • 2) The suspension of the cells was transferred to 10 mL of HBSS in a 15 mL conical tube. • 3) The cells were centrifuged at 1000 rpm for 5 min at room temperature to precipitate the cells. • 4) The supernatant was gently aspirated, and being careful not to aspirate the cells. • 5) The cells were relaxed by flicking the precipitation, and then the cell precipitation was re-suspended in 10 mL of HBSS. A sterile pipette was used to move fluid up and down to remove clumps. • 6) The concentration of cells was counted and the cell viability on Vi-cell was determined. • 7) GLP-1R cells were re-suspended in the test buffer at a concentration of 2.0×E5/mL cells. • 8) 10 μL of GLP-1R cell was transferred to OptiPlate-384 well plate.
c) Transfer of Compound: • 1) 100 nL of compound was transferred to OptiPlate-384 plate using Echo Transfer. • 2) The plate was rotated at 1000 rpm for 5 seconds.
d) HTRF cAMP Analysis of Agonists: • 1) The plate was incubated at room temperature for 30 minutes before adding detection reagents. • 2) An electric multi-channel pipette was used to add 10 μL of detection reagents respectively. • 3) The 384 well plate was covered with TopSeal-A membrane and incubated for 60 min at room temperature.
TopSeal-A was unloaded and read on EnVision.

Like-named read-outs stand apart in the source and are kept apart here.

T1 sequence (P43220 24-463): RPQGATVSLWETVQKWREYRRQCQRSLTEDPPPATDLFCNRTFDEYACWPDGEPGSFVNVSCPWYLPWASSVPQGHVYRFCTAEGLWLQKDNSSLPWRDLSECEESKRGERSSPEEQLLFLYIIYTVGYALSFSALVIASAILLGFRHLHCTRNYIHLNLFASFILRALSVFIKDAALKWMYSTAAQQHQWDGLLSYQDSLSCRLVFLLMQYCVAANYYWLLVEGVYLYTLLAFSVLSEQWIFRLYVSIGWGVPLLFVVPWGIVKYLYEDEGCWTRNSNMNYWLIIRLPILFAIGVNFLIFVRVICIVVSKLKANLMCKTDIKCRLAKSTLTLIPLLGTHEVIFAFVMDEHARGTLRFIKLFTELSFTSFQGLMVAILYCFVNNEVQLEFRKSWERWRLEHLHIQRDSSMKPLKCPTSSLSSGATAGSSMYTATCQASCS

Turning to `N#Cc1ccc(COc2cccc(C3CCN(Cc4nc5ccc(C(=O)O)cc5n4C[C@@H]4CCO4)CC3)n2)c(F)c1` [PF-06882961, reference compound], the F in data set [1] is 8.0%. Besides, in data set [1] (1 mg/kg IV), the maximum concentration (Cmax) (in general, the maximum level reached in the sampled fluid or tissue) turned out to be 2220 ng/mL; the time to peak (Tmax) (commonly the time at which the peak concentration occurs) stood at 0.083 h; the clearance is 15.9 mL/min/kg; the half-life (as a rule, how long it takes for the measured level to halve) was 1.14 h. The AUC(0-t) in data set [1] (1 mg/kg IV) was found to be 1070 ng·h/mL. Moreover, in data set [1] (50 mg/kg PO), the highest concentration (Cmax) stood at 2050 ng/mL, the time of peak concentration (Tmax) came out at 1.75 h, the half-life is 10.9 h and the concentration at 24 h amounted to 41.4 ng/mL. For the same molecule, the AUC(0-t) in data set [1] (50 mg/kg PO) came to 4330 ng·h/mL. Besides, in data set [2], the area under the curve AUC(0-inf) (usually the area under the concentration-time curve extrapolated to infinity) amounted to 179 ng·h/mL, the Cmax was 55 ng/mL, the Tmax is 0.42 h and the half-life is 6.88 h.
Turning to semaglutide, the “patients with ≥5% weight loss” value in data set [3] (2.4 mg group, 68 weeks) is recorded as 86.4%. Also, in data set [3] (2.4 mg, 68 weeks of treatment, baseline 105.3 kg), the “decrease of mean baseline body weight” value is 14.9%.
In turn, `O=C(O)c1ccc2nc(CN3CCC(c4ccccc4OCc4ccc(Cl)cc4F)CC3)n(C[C@@H]3CCO3)c2c1` [Compound 3] showed a F in data set [1] of 51.2%. For the same molecule, in data set [1] (1 mg/kg IV), the Cmax is 1590 ng/mL, the Tmax was determined as 0.083 h, the clearance was 19.2 mL/min/kg and the half-life was 0.98 h. Moreover, the AUC(0-t) in data set [1] (1 mg/kg IV) was determined as 898 ng·h/mL. For the same molecule, in data set [1] (50 mg/kg PO), the concentration peaked (Cmax) at 2440 ng/mL, the time of peak concentration (Tmax) stood at 2.5 h, the half-life is 22.6 h and the concentration at 24 h was 597 ng/mL. In data set [1] (50 mg/kg PO), the AUC(0-t) came to 23000 ng·h/mL. At human GLP-1R receptor, the EC50 (in general, the concentration at which the effect is half-maximal) was determined as 900 pM. In data set [2], the total exposure AUC(0-inf) was 1030 ng·h/mL, the Cmax was found to be 1160 ng/mL, the time of peak concentration (Tmax) came to 0.25 h and the half-life is 2.58 h.
